The results in this text go back to US9040071B2, “Pary-xylene based microfilm elution devices” (Cute Lovable Teddy Bear, LLC., priority 2009, dated 2015).

Counter-ions that a name gives are not always drawn.

Assay type in all cases: physicochemical
The nature of data set [1]: Therapeutic spreading on unoxidized vs oxidized parylene layer (Example 1). An excerpt: Referring to FIG. 4, Example 1 is an experiment to compare therapeutic spreading with respect to an unoxidized parylene layer and an oxidized parylene layer. The therapeutic analyte was Doxorubicin-HCl. Doxorubicin-HCl is the salt version of the anti-cancer chemotherapeutic Doxorubicin: (8S,10S)-8-acetyl-10-[(2S,4S,5S,6S)-4-amino-5-hydroxy-6-methyl-oxan-2-yl]oxy-6,8,11,14-tetrahydroxy-1-methoxy-9,10-dihydro-7H-tetracene-5,12-dione, having four fused six member rings of which two are unsaturated and one is a dione and a pendant sugar group The Doxorubicin-HCl has a red color and is easily visualized with no additional modification.
FIG. 5 is plot of therapeutic intensity vs. distance a from the a peripheral margin along a great diameter. Discarding values at the margin, for unoxidized paralyene there are two peaks and three troughs with amplitude variation ranging from about 0.009 to about 0.012 with units being arbitrary values of intensity measurement. In contrast, for oxidized paralyene, there are no significant peaks or troughs and near constant intensity at about 0.008.

Data set [2] in a line: Doxorubicin-HCl elution, multilayer laminate vs single layer barrier, in water and media (Example 5). Particulars: for elution rate: compared with 0.05 gram-layer constructs.
A short description of data set [3]: Paclitaxel elution from parylene devices (Example 9). Particulars: uncovered devices (no top layer); PBS, 37 degrees Celsius; judged by visualization of the devices. An excerpt: Referring to FIG. 14, Example 9 is an experiment to test the elution of paclitaxel (taxol). Paclitaxel is smaller hydrophobic molecule drug and has the chemical composition of (2α,4α,5β,7β,10β,13α)-4,10-bis(acetyloxy)-13-{[(2R,3S)-3-(benzoylamino)-2-hydroxy-3-phenylpropanoyl]oxy}-1,7-dihydroxy-9-oxo-5,20-epoxytax-11-en-2-yl benzoate. It is a microtubule stabilizing therapeutic with anti-cancer properties.
A series of trilayer devices were constructed having a top barrier layer having a mass of 0.3, 0.45, or 0.6 gram oxidized parylene.
Devices containing no top layer (uncovered) were not maintained as part of these experiments in that all of the drug is released from uncovered devices within the first 24 hours. […] With rapidly increasing concentration, the paclitaxel rapidly precipitates out of solution (visible by the accumulation of white precipitate) making quantification of the released drug impossible. Drug release from uncovered devices was determinable by the visualization of the devices and noticing the lack of drug on their surfaces.
For each time point, peak absorbance was measured at 230 nanometers at which paclitaxel is readily detectable.

Setting [4] is: oxidized parylene relative to unoxidized parylene, 50 μg desiccated, two replicates.

Turning to `COc1cccc2c1C(=O)c1c(O)c3c(c(O)c1C2=O)C[C@@](O)(C(=O)CO)C[C@@H]3O[C@H]1C[C@H](N)[C@H](O)[C@H](C)O1` [Doxorubicin-HCl], in data set [1] (setting [4]), the “radius of stained area” value was “about twice the radius”. In addition, in data set [1] (setting [4]), the “surface area of stained area” value was “four times the surface area”. In addition, the therapeutic intensity result in data set [1] (oxidized parylene, no significant peaks or troughs, near constant) is on record as “about 0.008 arbitrary values of intensity measurement”. The “drug release vs single layer device of 0.05 gram laminate” value was “release less drug” in data set [2] (media, multilayer laminate 3×0.05 grams); “release less drug” in data set [2] (media, multilayer laminate 5×0.05 grams); “release less drug” in data set [2] (media, multilayer laminate 7×0.05 grams). Also, the “elution profile compared among constructs” value was “approximately the same elution profile” in data set [2] (media, multilayer laminate constructs of 3×0.05, 5×0.05 and 7×0.05 grams); “approximately the same elution profile” in data set [2] (water, constructs of 1×0.05, 3×0.05, 5×0.05 and 7×0.05 grams). Moreover, the drug release entry in data set [2] (media, single layer laminate device of 0.15 grams, regular parylene C) is reported as “do not release the drug”; in data set [2] (media, single layer laminate device of 0.25 grams, regular parylene C), “do not release the drug”; in data set [2] (media, single layer laminate device of 0.35 grams, regular parylene C) it was “do not release the drug”; in data set [2] (water, single layer laminate device of 0.35 grams) it was “does not release the drug”. The elution rate entry in data set [2] (water, single layer laminate device of 0.15 grams) is recorded as “slower elution”; in data set [2] (water, single layer laminate device of 0.25 grams) it was “slower elution”.
As for `CC(=O)O[C@H]1C(=O)[C@@]2(C)[C@H]([C@H](OC(=O)c3ccccc3)[C@]3(O)C[C@H](OC(=O)[C@H](O)[C@@H](NC(=O)c4ccccc4)c4ccccc4)C(C)=C1C3(C)C)[C@]1(OC(C)=O)CO[C@@H]1C[C@@H]2O` [paclitaxel, (2α,4α,5β,7β,10β,13α)-4,10-bis(acetyloxy)-13-{[(2R,3S)-3-(benzoylamino)-2-hydroxy-3-phenylpropanoyl]oxy}-1,7-dihydroxy-9-oxo-5,20-epoxytax-11-en-2-yl benzoate], in data set [3], the “time within which all of the drug is released” value is ≤ 24 h.
